Experimental data as given in US11530229B2, “Cyano cyclobutyl compounds for CBL-B inhibition and uses thereof” (Nurix Therapeutics, Inc., priority 2019, dated 2022).

Tested on: syngeneic TC-1 cell tumor
Test: Tumor growth response (partial responders), Cbl-b inhibitor plus cancer vaccine, Biological Example 11
Type: in vivo, C57BL/6 mice
Details: significant decrease in tumor volume relative to control mice without Cbl-b inhibitor or vaccine; 10 mice per group
Method: In brief, the combination therapy was tested in C57BL/6 mice bearing a syngeneic TC-1 cell tumor. TC-1 cells were derived from primary murine lung cells, which had been transfected with human papillomavirus strain 16 (HPV16) early proteins 6 and 7 (E6 and E7) and an activated human c-Ha-ras oncogene (Lin et al., Cancer Research, 56: 21-26, 1996). Either 2.5×10^4 (first study) or 5.0×10^4 (second study) TC-1 cells (obtained from Johns Hopkins University) were injected subcutaneously into the mid flank of each mouse. Tumors were allowed to grow to 50-100 mm^3 at which time the animals were randomized and treatment was initiated (Day 0). […]
Tumor size was recorded twice a week starting on Day 0 (Day 14 post TC-1 injection) and continued through duration of dosing until humane endpoints were reached between Day 33 and Day 42 (=between Day 47 and Day 56 post TC-1 injection). The level of response was evaluated by comparing tumor growth in the test mice versus the control mice (10 mice per group). In addition, the level of immune activation was assessed by collecting tumors for analysis of tumor infiltrating lymphocytes (TILs) on Day 10 (=Day 24 post TC-1 injection) in test and control mice (6 mice per group). […]

Q: How did the partial responders turn out when `Cc1cc(C(=O)Nc2cccc(C3(Cc4nncn4C)COC3)c2)nc(C2CC2)n1` [Compound 60] was run?
A: 0/10
